Measured values as given in US20060029654A1, “Analgesic patch for sports injury rehabilitation medicine and method to alleviate pain” (priority 2004, published 2006).

Tested on: pain in the right shoulder and right lateral thigh (right rotator cuff tendonitis and right lateral fasciaitis)
Settings: prior treatment history; injection into the pain trigger zone

C[C@]12CCC(=O)C=C1CC[C@@H]1[C@@H]2C(=O)C[C@@]2(C)[C@H]1CC[C@]2(O)C(=O)CO [cortisone]
duration of temporary pain relief: 4 to 6 weeks
